Reference: patent US20090105263A1, “HETEROBICYCLIC COMPOUNDS AS GLUCOKINASE ACTIVATORS” (priority 2005, published 2009)

Molecular target: T1, recombinant human pancreatic GLK (Homo sapiens, UniProt P35557)
T1 sequence (P35557 1-465): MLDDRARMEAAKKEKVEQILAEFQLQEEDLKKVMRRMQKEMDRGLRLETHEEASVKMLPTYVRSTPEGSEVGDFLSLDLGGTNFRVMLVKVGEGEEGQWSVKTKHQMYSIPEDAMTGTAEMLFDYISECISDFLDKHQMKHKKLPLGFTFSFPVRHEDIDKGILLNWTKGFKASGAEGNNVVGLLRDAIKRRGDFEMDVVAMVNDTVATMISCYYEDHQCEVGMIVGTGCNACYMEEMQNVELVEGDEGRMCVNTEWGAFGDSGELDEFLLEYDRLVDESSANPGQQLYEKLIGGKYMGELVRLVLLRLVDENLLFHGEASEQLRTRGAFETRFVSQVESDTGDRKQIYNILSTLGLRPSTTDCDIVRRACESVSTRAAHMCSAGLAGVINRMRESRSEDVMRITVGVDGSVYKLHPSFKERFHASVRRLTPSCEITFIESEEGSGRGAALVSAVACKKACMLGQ
Assay: biochemical

COC[C@H](C)Oc1cc(OCc2ccccc2)cc(-c2cc3cccnc3[nH]2)c1 [Example 1, 2-[3-(Benzyloxy)-5-[(1S)-2-methoxy-1-methylethoxy]phenyl]-1H-pyrrolo[2,3-b]pyridine] was tested, and the EC50 was 120 nM.
